# Test results taken from patent publication US20140121732A1, “METHODS AND COMPOSITIONS FOR ADMINISTERING A SPECIFIC WAVELENGTH PHOTOTHERAPY” (Applied Biology, Inc., priority 2011, published 2014).
# Experiment: UV absorbance spectrum and derived transmittance profile of photocream applied at 20 μm
# Format: physicochemical
# Text: In one embodiment of the present invention, a band-pass photocream is composed such that it is optimized to have maximum transmittance at a therapeutic wavelength of 311 nm for the treatment of vitiligo, psoriasis, atopic dermatitis, and other skin conditions. Said photocream would contain two UV absorbing active ingredients having UV absorbance spectra that when combined in a determined ratio would have a spectral minimum (valley) at 311 nm. For example, a band-pass photocream could be formulated with silymarin (CAS#22888-70-6) and diethylamino hydroxybenzoyl hexyl benzoate (CAS#302776-68-7) in a weight to weight ratio of 2:3 (or less preferably within the range 1:2 to 5:6, or within the range 5:9 to 7:9) to produce an absorbance spectrum with a spectral valley at 311 nm. Said photocream may contain 0.75% (w/w) silymarin (CAS#22888-70-6) and 1.125% (w/w) diethylamino hydroxybenzoyl hexyl benzoate (CAS#302776-68-7). An illustrative absorbance spectrum for such a composition is shown in FIG. 3 when applied at a thickness of 20 μm. […] Alternatively, a band-pass photocream could be formulated with alpha-glucosyl hesperidin (CAS#161713-86-6) and diethylamino hydroxybenzoyl hexyl benzoate (CAS#302776-68-7) in the weight to weight ratio of 4:1 (or less preferably within the range 3:1 to 5:1, or within the range 7:2 to 9:2) to produce an absorbance spectrum with a spectral valley at 311 nm.
# In yet another embodiment, a combination of UV absorbing molecules may be formulated to selectively pass UVB light in the range 306-310 nm for the benefit of maximum vitamin D production while still providing limited protecting from erythema. Said photocream may contain two UV absorbing active ingredients having UV absorption spectra that when combined in a determined ratio would have a spectral minimum (valley) at 308 nm. […] Said photocream could contain 1% (w/w) silymarin (CAS#22888-70-6) and 2.5% (w/w) diethylamino hydroxybenzoyl hexyl benzoate (CAS#302776-68-7) and would produce an absorbance spectra shown in FIG. 7 when applied at a thickness of 20 μm. […]
row,SMILES,UV absorbance (in words)
1,"COC(=O)C=Cc1ccccc1 [Methyl cinnamate, methyl cinnamate]",significant absorbance in the lower UVB range below roughly 310 nm
2,"COc1ccc(C(=O)CC(=O)c2ccc(C(C)(C)C)cc2)cc1 [Avobenzone, avobenzone]",significant absorbance in the UVA
3,"COc1ccc([C@@H]2CC(=O)c3c(O)cc(O[C@@H]4O[C@H](CO[C@@H]5O[C@@H](C)[C@H](O)[C@@H](O)[C@H]5O)[C@@H](O)[C@H](O)[C@H]4O)cc3O2)cc1O [Hesperidin, hesperidin]",significant absorbance in the lower UVB range below roughly 310 nm
